According to patent publication US20040018501A1, “Methods and systems for analyzing complex biological systems” (priority 2001, published 2004):

Key:
Format in all cases: cell-based
[1] = tested on: Saccharomyces cerevisiae wild type strain BY4743; assay: AF1 combined gene expression and metabolite mapping to KEGG reactions and pathways
Excerpt: In AF1, two different technologies were utilized: gene expression analysis (for examination of mRNA expression) and metabolite analysis. […] As noted previously, existing metabolic databases may be helpful in practicing the methods and systems of the present invention, but many databases include limitations that make their use in data analysis and pathway mapping less than straightforward. […] This caveat to KEGG makes it difficult to pinpoint the correct pathway when attempting to link a gene to a specific pathway. […] The pathway score indicates how meaningful the mapping is, or how likely it is to be correctly indicative of the pathway involved in the perturbation under examination. The method provides a pathway score based on perturbation levels of genes and/or compounds and the information content of each gene and/or compound in the pathway, i.e., a pathway score indicates the extent to which other pathways are mapped to a gene/compound. […] Degree of perturbation can be calculated, for example, based on a number of standard deviations from a norm, and included in an equation such as the one shown above, so that not only the number of pathways is taken into account, but also accounts for the amount of gene transcript or compound present as compared to a control. […] Of the 676 compounds under consideration, 77 were detected in the AF1 samples. […]

[2] = tested on: Saccharomyces cerevisiae wild type strain BY4743; assay: AF1 yeast metabolite analysis by GC-MS and LC-MS; details: for # Compounds perturbed: 2×MIC, two hours
[3] = tested on: Saccharomyces cerevisiae wild type strain BY4743; assay: AF1 yeast gene expression analysis (microarray); details: p < 0.05, KEGG mapping
Description: Saccharomyces cerevisiae wild type strain BY4743 was purchased from American Type Culture Center (ATCC, Manassas, Va.). The yeast strain was grown in YPD or SD media. […] The cultures started from fresh single colonies were grown in 1.0 ml YPD overnight at 30° C. […] The OD600 was adjusted to 1.0 with YPD media, then 2.0 ml of each was inoculated into three 250 ml flasks, each containing 50 ml of SD media. […] The cells were kept growing for another two hours, then collected by centrifugation at 4000 rpm for 5 minutes at 4° C. Pellets were washed once with ice-cold water, then were lyophilized overnight at 4° C. […] RNA quality was determined using the Bioanalyzer 2100 and the RNA 6000 assay (Agilent Technologies, Palo Alto, Calif.) according to manufacturer's instructions. RNA concentrations were determined spectrophotometrically by measuring the absorption at 260 nm in an Ultrospec 2000 (Pharmacia Biotech, Piscataway, N.J.). […] Labeled cRNAs were evaluated using the RNA 6000 assay on the Agilent Bioanalyzer 2100. Labeled cRNA concentrations were determined spectrophotometrically by measuring the absorption at 260 nm in an Ultrospec 2000 (Pharmacia Biotech, Piscataway, N.J.). […] Each feature was determined from an array's associated pattern file and a detection algorithm. […] Data was evaluated after combining results from fluor reversal replicate hybridizations. […]

C[C@@H]1[C@H](O)[C@@H](C)/C=C/C=C/C=C/C=C/C=C/C=C/C=C/[C@H](O[C@@H]2O[C@H](C)[C@@H](O)[C@H](N)[C@@H]2O)C[C@@H]2O[C@](O)(C[C@@H](O)C[C@@H](O)[C@H](O)CC[C@@H](O)C[C@@H](O)CC(=O)O[C@H]1C)C[C@H](O)[C@H]2C(=O)O [Amphoteracin B]
Number of Reactions Having an Enzyme and at Least One Compound Perturbed [1]: 54
# Compounds perturbed ([2]; P < 0.05): 16
# Compounds perturbed ([2]; P < 0.1): 21
Fold Change of campesterol ([2]; platform GC): 0
Fold Change of desmosterol ([2]; platform GC): 0
Fold Change of octadecanoic acid ([2]; platform GC): 0.21
Fold Change of abscisic acid ([2]; platform LC): 0
Fold Change of adenosine ([2]; platform LC): 0
Fold Change of riboflavin ([2]; platform LC): 0
Fold Change of 4-methylcatechol ([2]; platform nLC): 0
Fold Change of 5hydroxyLtryptophan ([2]; platform nLC): 0
Fold Change of 6-benzylaminopurine ([2]; platform nLC): 0
Fold Change of NacetylDglucosamine ([2]; platform nLC): 0
Fold Change of NacetylLornithine ([2]; platform nLC): 0
Fold Change of abscisic acid ([2]; platform nLC): 0
Fold Change of adenine ([2]; platform nLC): 0
Fold Change of adenosine ([2]; platform nLC): 0
Fold Change of anthranilic acid ([2]; platform nLC): 0
Fold Change of argininosuccinate ([2]; platform nLC): 0
Fold Change of benzoic acid ([2]; platform nLC): 0
Fold Change of catechol ([2]; platform nLC): 0
Fold Change of cinnamic acid ([2]; platform nLC): 0
Fold Change of citricanoic/itaconi ([2]; platform nLC): 0
Fold Change of coumaric acid ([2]; platform nLC): 0
Fold Change of cytosine ([2]; platform nLC): 0
Fold Change of diaminopimelic acid ([2]; platform nLC): 0
Fold Change of dihydrofolic acid ([2]; platform nLC): 0
Fold Change of estrone ([2]; platform nLC): 0
Fold Change of farnesol ([2]; platform nLC): 0
Fold Change of folic acid ([2]; platform nLC): 0
Fold Change of gibberellic ([2]; platform nLC): 0
Fold Change of glutamine/lysine ([2]; platform nLC): 0.07919
Fold Change of guanine ([2]; platform nLC): 0
Fold Change of histidine ([2]; platform nLC): 0
Fold Change of homogentisic/uric ([2]; platform nLC): 0
Fold Change of hydrocortisone ([2]; platform nLC): 0
Fold Change of indole3pyruvic acid ([2]; platform nLC): 0
Fold Change of jasmonic acid ([2]; platform nLC): 0
Fold Change of kinetin ([2]; platform nLC): 0
Fold Change of luteolin ([2]; platform nLC): 0
Fold Change of malonic acid ([2]; platform nLC): 0
Fold Change of methionine ([2]; platform nLC): 0
Fold Change of phenylpyruvic acid ([2]; platform nLC): 0
Fold Change of phosphoenolpyruvate ([2]; platform nLC): 0
Fold Change of pinitol ([2]; platform nLC): 0
Fold Change of porphobilinogen ([2]; platform nLC): 0
Fold Change of retinoic acid ([2]; platform nLC): 0
Fold Change of salicylic/HObenzoic ([2]; platform nLC): 0
Fold Change of shikimic acid ([2]; platform nLC): 0
Fold Change of sinapinic acid ([2]; platform nLC): 0
Fold Change of thymine ([2]; platform nLC): 0
Fold Change of urocanic acid ([2]; platform nLC): 0
Fold Change of xanthosineDiH2O ([2]; platform nLC): 0
Fold Change of zeatin ([2]; platform nLC): 0
Fold Change of 4-aminobenzoic acid ([2]; platform pLC): 0
Fold Change of 4-methylcatechol ([2]; platform pLC): 0
Fold Change of 5hydroxyLtryptophan ([2]; platform pLC): 0
Fold Change of 6benzylaminopurine ([2]; platform pLC): 0
Fold Change of NacetylDglucosamine ([2]; platform pLC): 0
Fold Change of NacetylLglutamate ([2]; platform pLC): 0
Fold Change of allantoic acid ([2]; platform pLC): 0
Fold Change of anthranilic acid ([2]; platform pLC): 0
Fold Change of argininosuccinate ([2]; platform pLC): 0
Fold Change of biotin ([2]; platform pLC): 0
Fold Change of caffeine ([2]; platform pLC): 0
Fold Change of citric acid TME ([2]; platform pLC): 0
Fold Change of cytidine ([2]; platform pLC): 0
Fold Change of cytosine ([2]; platform pLC): 0
Fold Change of diaminopimelic acid ([2]; platform pLC): 0
Fold Change of dihydrofolic acid ([2]; platform pLC): 0
Fold Change of dipicolinic acid ([2]; platform pLC): 0
Fold Change of folic acid ([2]; platform pLC): 0
Fold Change of glucosamine ([2]; platform pLC): 0
Fold Change of glucosamine6PO4 ([2]; platform pLC): 0
Fold Change of histidine ([2]; platform pLC): 0
Fold Change of hydrocortisone ([2]; platform pLC): 0
Fold Change of itaconic acid dimes ([2]; platform pLC): 0
Fold Change of kinetin ([2]; platform pLC): 0
Fold Change of luteolin ([2]; platform pLC): 0
Fold Change of niacinamide ([2]; platform pLC): 0
Fold Change of nopaline ([2]; platform pLC): 0
Fold Change of phosphoenolpyruvate ([2]; platform pLC): 0
Fold Change of progesterone ([2]; platform pLC): 0
Fold Change of sugar-phosphate ([2]; platform pLC): 0
Fold Change of thiamine ([2]; platform pLC): 0
Fold Change of thymine ([2]; platform pLC): 0
Fold Change of tryptophan ([2]; platform pLC): 0
Fold Change of urocanic acid ([2]; platform pLC): 0
Fold Change of xanthosine(diH2O) ([2]; platform pLC): 0
Fold Change of zeatin ([2]; platform pLC): 0
# Pathways Affected by at Least One Gene [3]: 97
